Assay results reported in EP4345091A1, “BENZOIC ACID DERIVATIVES, METHODS AND USES THEREOF” (priority 2022, dated 2024).
Values after ≈ are worked out from the molar mass of the structure shown. Where two headings read alike, the source gives them in different places.

Assays:
[1] = Stability in human plasma (enzymatic hydrolysis)
Experimental: The studies of stability in human plasma were performed in human plasma diluted to 80% with phosphate buffer pH 7.4 of total concentration 0.05 M and ionic strength 0.15 M at 37°C. […] Study of enzymatic hydrolysis. […] Initial substrate concentration (ester) - 5×10^-4M with 2% ACN.
Pooled human plasma (960 µL), pH 7.4 phosphate buffered saline (216 µL), 18 µL ACN and 6 µL of a 10-1 M stock solution of the prodrug in ACN were mixed in a 2mL vial. The suspensions were incubated at 37 °C and 50 µL aliquots were removed, mixed with 450 µL of ACN: ZnSO4 1% 1:1 and centrifuged. The supernatant was removed and analysed by HPLC, the remaining substrate and the correspondent acid measured.
Two HPLC systems were used. The buffer and plasma stability studies were performed in an HPLC system with a photodiode detector L-3000 Photo Diode Array Detector, Merck-Hitachi L-6000 pump, Merck-Hitachi D-2500 integrator, and Merck RP-8 column. […] The eluant was a mixture of acetonitrile (60%/70%) and aqueous phosphate buffer with 5% of KH2PO4/H3PO4 0.025M (40%/30%). The flow rate was always 1 mL/1 min and wavelength was set at 230 nm. All quantifications were evaluated using calibration curves from stock solutions.
The initial substrate concentration was 5 x 10^-4 M in all stability assays. All incubations were carried out at pH 7.4 and 37 °C under agitation using the phosphate buffer described above as diluting agent. […] Acetonitrile (2%) was used in all studies to ensure adequate solubilization of the substrates. The benzoates were added from 10 to 1M acetonitrile stock solutions. After incubation, aliquots of 50 µL were taken into vials containing 450 µL of a 1:1 solution of 1% zinc sulfate and acetonitrile, mixed in a vortex and centrifuged for 10 min at 15,000 rpm. The supernatant was then injected into the HPLC and analysed for quantification of benzoic acid and remaining benzoate. All quantifications were performed using calibration curves.

[2] = Stability in Mycobacterium smegmatis homogenate (enzymatic hydrolysis); conditions: pH 7.4; for half-life: Mycobacterium smegmatis
[3] = test system: Mycobacterium smegmatis homogenate; test: as above; conditions: Mycobacterium smegmatis homogenate, 37°C
[4] = test system: Mycobacterium tuberculosis H37Rv; test: MIC and MBC by broth microdilution against M. tuberculosis H37Rv; format: cell-based, Mycobacterium tuberculosis H37Rv (ATCC 27294); conditions: Mycobacterium tuberculosis, H37RV
[5] = test system: Mycobacterium Bovis BCG infecting human macrophages THP-1; format: cell-based; conditions: compound concentration 2 µg/ml
[6] = Cytotoxicity assay in THP-1 cells; format: cell-based, human; conditions: human, THP-1 cells, read-out: LC50 (the source's name)
Source text: (§1) Cytotoxicity results were obtained through lethal concentration for 50% of the cell population, LC50. Table 6. Results obtained from cytotoxicity assays for the esters, represented by LD50 in µg/mL and comparison with MIC values, in µg/mL with toxicity/activity (T/A) index.
(§2) The T/A index quantitatively is the ratio between the lethal concentration (LC50) given by the minimum inhibitory concentration (MIC).

[7] = Chemical stability in phosphate buffer pH 7.4
Experimental: Chemical hydrolysis was evaluated in phosphate buffer at physiological pH (7.4) to determine its influence in enzymatic studies.
1176 µL pH 7.4 phosphate buffer or pH 5.9 phosphate buffer, 18 µL ACN and 6 µL of a 10-1 M stock solution of the prodrug in ACN were mixed in a 2mL vial. The solution was incubated at 37 °C and 50 µL aliquots were removed, mixed with 450 µL of ACN: H2O 1:1. The solution was analysed by HPLC, the remaining substrate and the correspondent acid were both measured.
The eluant was a mixture of acetonitrile (60%/70%) and aqueous phosphate buffer with 5% of KH2PO4/H3PO4 0.025M (40%/30%). The flow rate was always 1 mL/1 min and wavelength was set at 230 nm. All quantifications were evaluated using calibration curves from stock solutions.
The initial substrate concentration was 5 x 10^-4 M in all stability assays. All incubations were carried out at pH 7.4 and 37 °C under agitation using the phosphate buffer described above as diluting agent. […] Acetonitrile (2%) was used in all studies to ensure adequate solubilization of the substrates.

[8] = test system: human monocytic cell line THP-1 (ATCC56 TIB202); test: Cytotoxicity assay in THP-1 cells; format: cell-based; conditions: toxicity/activity index: ratio LC50 (THP-1) / MIC (M. tuberculosis H37Rv)
Source text: as §1, §2

[9] = THP-1 monocytic cells, n/d (no toxicity at maximum tested dose)
[10] = n/d (no toxicity at maximum tested dose)
[11] = M. tuberculosis H37Rv, Table 3, read-out: MBC
[12] = M. tuberculosis H37Rv, Tables 3, 6 and 7, read-out: MIC
[13] = THP-1 monocytic cells, lethal concentration for 50% of the cell population

| Compound | Degradation (%) 24h [1] [%] | Degradation (%) 48h [1] [%] | Degradation (%) 72h [1] [%] | Degradation (%) 24h [3] [%] | Degradation (%) 48h [3] [%] | Degradation (%) 24h [7] [%] | Degradation (%) 48h [7] [%] | Degradation (%) 72h [7] [%] | Degradation (%) 168h [7] [%] | Degradation (%) 332h [7] [%] | MBC [4, 11] [µg/mL] | MIC [4, 12] [µg/mL] | T/A [8] | CC50 [6, 13] [µg/mL] | other results |
| --- | --- | --- | --- | --- | --- | --- | --- | --- | --- | --- | --- | --- | --- | --- | --- |
| CCCCCCOC(=O)c1ccccc1 [Compound 1b, Hexyl benzoate] | 94 | 100 | 100 | 100 | 100 | – | – | – | – | – | – | – | – | – | half-life [2]: 12.6 ± 0.6 min |
| CCCCCCOC(=O)c1ccc([N+](=O)[O-])cc1 [Compound 2b] | – | – | – | 77 | 94 | – | – | – | – | – | – | – | – | – | MBC ([4]; M. tuberculosis H37Rv, Table 3): 128 µg/mL (≈ 509 µM); MIC ([4]; M. tuberculosis H37Rv, Tables 3, 6 and 7): 64 µg/mL (≈ 255 µM); half-life at 500 µM ([2]; mycobacterium smegmatis homogenate): 690 ± 36 min |
| CCCCCCCCCCOC(=O)c1cc([N+](=O)[O-])cc([N+](=O)[O-])c1 [Compound 3d, Decyl 3,5-dinitrobenzoate] | 18 | 32 | 44 | 5 | 9 | – | – | – | – | – | – | – | – | – | MBC [4]: 4 µg/mL (≈ 11.4 µM); MIC [4]: 4 µg/mL (≈ 11.4 µM); CFU x10^4 ([5]; Time 0 days): 9.2 CFUs per mL; CFU x10^4 ([5]; Time 1 day): 12.5 CFUs per mL; CFU x10^4 ([5]; Time 3 days): 12.5 CFUs per mL; CFU x10^4 ([5]; Time 7 days): 8.5 CFUs per mL; CC50 [6, 9]: > 512 µg/mL |
| CCCCCCCCCCCCOC(=O)c1cc([N+](=O)[O-])cc([N+](=O)[O-])c1 [Compound 3e] | 29 | 50 | 65 | 4 | 8 | 0 | 0 | 1 | 1 | 2 | – | – | – | – | MBC [4]: 16 µg/mL (≈ 42.1 µM); MIC [4]: 8 µg/mL (≈ 21 µM); CC50 [6, 10]: > 512 µg/mL |
| CCCCCCCCCCCCCCOC(=O)c1cc([N+](=O)[O-])cc([N+](=O)[O-])c1 [Compound 3f] | 23 | 51 | 65 | 3 | 6 | – | – | – | – | – | – | – | – | – | MBC [4]: > 1020 µg/mL; MIC [4]: 16 µg/mL (≈ 39.2 µM); CFU x10^4 ([5]; Time 0 days): 9.2 CFUs per mL; CFU x10^4 ([5]; Time 1 day): 12.16 CFUs per mL; CFU x10^4 ([5]; Time 3 days): 13.66 CFUs per mL; CFU x10^4 ([5]; Time 7 days): 7.25 CFUs per mL; CC50 [6, 10]: > 512 µg/mL |
| CCCCCCCCCCCCCCCCOC(=O)c1cc([N+](=O)[O-])cc([N+](=O)[O-])c1 [Compound 3g, Hexadecyl 3,5-dinitrobenzoate] | 1 | 3 | 4 | 2 | 4 | – | – | – | – | – | – | – | – | – | MBC [4]: > 1020 µg/mL; MIC [4]: > 1020 µg/mL; CC50 [6, 9]: > 512 µg/mL |
| CCCCCCCCCCOC(=O)c1cc([N+](=O)[O-])cc(C(F)(F)F)c1 [Compound 4d, Decyl 3-nitro-5-(trifluoromethyl)benzoate] | 26 | 45 | 60 | 5 | 10 | – | – | – | – | – | 256 (≈ 682 µM) | 128 (≈ 341 µM) | – | – | CC50 [6, 9]: > 512 µg/mL |
| CCCCCCCCCCCCOC(=O)c1cc([N+](=O)[O-])cc(C(F)(F)F)c1 [Compound 4e, Dodecyl 3-nitro-5-(trifluoromethyl)benzoate] | 1 | 2 | 3 | 3 | 6 | 1 | 2 | 3 | 6 | 11 | > 1020 | > 1020 | – | – | CC50 [6, 9]: > 512 µg/mL |
| CCCCCCCCNC(=O)c1ccccc1 [Compound 5c, N-octyl-benzamide] | 0 | 0 | 0 | 1 | 2 | 0 | 0 | 0 | 0 | 0 | 32 (≈ 137 µM) | 32 (≈ 137 µM) | 6 | 188 (≈ 806 µM) | – |
| CCCCCCNC(=O)c1ccc([N+](=O)[O-])cc1 [Compound 6b, N-hexyl-4-nitrobenzamide] | – | – | – | 17 | 32 | – | – | – | – | – | 64 (≈ 256 µM) | 32 (≈ 128 µM) | – | – | half-life [2]: 5230 ± 348 min |
| CCCCCCCCNC(=O)c1ccc([N+](=O)[O-])cc1 [Compound 6c, N-octyl-4-nitrobenzamide] | 0 | 0 | 1 | 3 | 5 | 0 | 0 | 0 | 0 | 0 | 256 (≈ 920 µM) | 128 (≈ 460 µM) | 2 | 308 (≈ 1110 µM) | – |
| CCCCCCNC(=O)c1cc([N+](=O)[O-])cc(C(F)(F)F)c1 [Compound 8b, N-hexyl-3-nitro-5-(trifluoromethyl)-benzamide] | – | – | – | 7 | 14 | – | – | – | – | – | ≤ 0.5 | ≤ 0.5 | 46 | 23 (≈ 72.3 µM) | – |
| CCCCCCCCNC(=O)c1cc([N+](=O)[O-])cc(C(F)(F)F)c1 [Compound 8c, N-octyl-3-nitro-5-(trifluoromethyl)-benzamide] | 0 | 0 | 0 | 5 | 11 | 0 | 0 | 0 | 0 | 0 | 0.063 (≈ 0.182 µM) | 0.063 (≈ 0.182 µM) | 222 | 14 (≈ 40.4 µM) | – |
| CCCCCCCCCCNC(=O)c1cc([N+](=O)[O-])cc(C(F)(F)F)c1 [Compound 8d, N-decyl-3-nitro-5-(trifluoromethyl)-benzamide] | – | – | – | 2 | 3 | – | – | – | – | – | 0.5 (≈ 1.34 µM) | 0.5 (≈ 1.34 µM) | 106 | 53 (≈ 142 µM) | – |
| CCCCCCCCCCCCNC(=O)c1cc([N+](=O)[O-])cc(C(F)(F)F)c1 [Compound 8e, N-dodecyl-3-nitro-5-(trifluoromethyl)-benzamide] | 0 | 0 | 0 | 1 | 3 | 0 | 0 | 0 | 0 | 0 | 0.5 (≈ 1.24 µM) | 0.5 (≈ 1.24 µM) | 226 | 113 (≈ 281 µM) | – |
